Measurements published in patent US11051515B2, “3-acyl-benzamides and their use as herbicides” (Bayer Aktiengesellschaft, priority 2017, dated 2021).

Experiments:
AMARE = assay: Post-emergence action against AMARE; assay type: in vivo, Amaranthus retroflexus; conditions: Amaranthus retroflexus, 504 h; post-emergence, dosage 80 g/ha, visual assessment about 3 weeks after treatment vs untreated controls; read-out: Post-emergence action against AMARE (herbicidal action in percent)
Method in brief: (§1)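 Weeds grown in sandy loam in greenhouse, treated at one-leaf stage (2–3 weeks after sowing) with WP or EC formulations sprayed as aqueous suspension/emulsion at 600 to […] water with 0.2% wetting agent. Visual rating after about 3 weeks versus untreated controls, as % herbicidal action (100% = plants dead, 0% = like control).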

LOLRI [1] = assay: Pre-emergence action against LOLRI; assay type: in vivo, Lolium rigidum; conditions: Lolium rigidum, 504 h, dosage 320 g/ha, scored visually after 3 weeks vs untreated controls, read-out: Pre-emergence action against LOLRI (herbicidal activity)
Method in brief: (§2)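 Seeds sown in sandy loam in wood-fiber pots and covered with soil. Greenhouse growth; visual damage scored after 3 weeks versus untreated controls (100% = dead, 0% = like control).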

PHBPU = assay: Post-emergence action against PHBPU; assay type: in vivo, Pharbitis purpurea; conditions: Ipomoea purpurea, 504 h; post-emergence, dosage 80 g/ha
Method in brief: as §1

LOLRI [2] = assay: Post-emergence action against LOLRI; assay type: in vivo, Lolium rigidum; conditions: Lolium rigidum, 504 h, dosage 80 g/ha, visual assessment about 3 weeks after treatment vs untreated controls, read-out: Post-emergence action against LOLRI (herbicidal action in percent)
Method in brief: as §1

HORMU [3] = assay: Post-emergence action against HORMU; assay type: in vivo, Hordeum murinum; conditions: dosage 80 g/ha
Method in brief: as §1

VIOTR = assay: Post-emergence action against VIOTR; assay type: in vivo, Viola tricolor; conditions: Viola tricolor, 504 h; post-emergence, dosage 80 g/ha
Method in brief: as §1

SETVI = assay: Post-emergence action against SETVI; assay type: in vivo, Setaria viridis; conditions: Setaria viridis, 504 h; post-emergence, dosage 80 g/ha, visual assessment about 3 weeks after treatment vs untreated controls; read-out: Post-emergence action against SETVI (herbicidal action in percent)
Method in brief: as §1

STEME = assay: Pre-emergence action against STEME; assay type: in vivo, Stellaria media; conditions: Stellaria media, 504 h; Dosage 320 g/ha, pre-emergence
Method in brief: as §2

HORMU [4] = assay: Pre-emergence action against HORMU; assay type: in vivo, Hordeum murinum; conditions: Hordeum murinum, 504 h, Dosage 320 g/ha
Method in brief: as §2

POLCO = assay: Post-emergence action against POLCO; assay type: in vivo, Polygonum convolvulus; conditions: Fallopia convolvulus, 504 h; post-emergence, dosage 80 g/ha
Method in brief: as §1

CYPES = assay: Pre-emergence action against CYPES; assay type: in vivo, Cyperus esculentus; conditions: Cyperus esculentus, 504 h; pre-emergence, dosage 320 g/ha, scored visually after 3 weeks vs untreated controls; read-out: Pre-emergence action against CYPES (herbicidal activity)
Method in brief: as §2

DIGSA [5] = assay: Pre-emergence action against DIGSA; assay type: in vivo, Digitaria sanguinalis; conditions: dosage 320 g/ha, scored visually after 3 weeks vs untreated controls
Method in brief: as §2

DIGSA [6] = assay: Post-emergence action against DIGSA; assay type: in vivo, Digitaria sanguinalis; conditions: dosage 80 g/ha, visual assessment about 3 weeks after treatment vs untreated controls
Method in brief: as §1

In the case of CC(=O)c1c(I)ccc(C(=O)Nc2nnnn2C)c1Cl [1-192], the pest or weed control at 80 g/ha (AMARE) is reported as 100%, the pest or weed control at 320 g/ha (LOLRI [1]) is reported as 100% and the pest or weed control at 80 g/ha (PHBPU) is reported as 80%. For the same compound, the pest or weed control at 80 g/ha (LOLRI [2]) was 100%, the “Post-emergence action against HORMU” value (HORMU [3]) was 100 and the pest or weed control at 80 g/ha (VIOTR) was 100%. The pest or weed control at 80 g/ha (SETVI) was 100%, the pest or weed control at 320 g/ha (STEME) was 100% and the pest or weed control at 320 g/ha (HORMU [4]) was 100%. It also gave a pest or weed control at 80 g/ha (POLCO) of 100% and a pest or weed control at 320 g/ha (CYPES) of 90%.
In the case of Cn1nnnc1NC(=O)c1ccc(C(F)(F)F)c(C(=O)C2CC2)c1C1CC1 [1-233], the pest or weed control at 80 g/ha (AMARE) is reported as 90%, the pest or weed control at 320 g/ha (LOLRI [1]) is reported as 100% and the “Pre-emergence action against DIGSA (herbicidal activity)” value (DIGSA [5]) is reported as 100%. For the same compound, the pest or weed control at 80 g/ha (PHBPU) was 100%, the pest or weed control at 80 g/ha (LOLRI [2]) was 90% and the “Post-emergence action against HORMU” value (HORMU [3]) was 80. It also gave a pest or weed control at 80 g/ha (VIOTR) of 90%, a pest or weed control at 80 g/ha (SETVI) of 90% and a pest or weed control at 320 g/ha (STEME) of 100%. For the same compound, the pest or weed control at 320 g/ha (HORMU [4]) was 100%, the pest or weed control at 80 g/ha (POLCO) was 90% and the “Post-emergence action against DIGSA (herbicidal action in percent)” value (DIGSA [6]) was 100%.
With CCn1nnnc1NC(=O)c1ccc(C(F)(F)F)c(C(=O)C2CC2)c1C [2-18, 3-(cyclopropylcarbonyl)-N-(1-ethyl-1H-tetrazol-5-yl)-2-methyl-4-(trifluoromethyl)benzamide] the pest or weed control at 80 g/ha (AMARE) was 100%, the pest or weed control at 320 g/ha (LOLRI [1]) was 100% and the pest or weed control at 80 g/ha (PHBPU) was 100%. The pest or weed control at 80 g/ha (LOLRI [2]) was 100%, the “Post-emergence action against HORMU” value (HORMU [3]) was 100 and the pest or weed control at 80 g/ha (VIOTR) was 100%. The pest or weed control at 80 g/ha (SETVI) was 100%, the pest or weed control at 320 g/ha (STEME) was 90% and the pest or weed control at 320 g/ha (HORMU [4]) was 100%. The pest or weed control at 80 g/ha (POLCO) was 100% and the pest or weed control at 320 g/ha (CYPES) was 100%.
